According to ChEMBL document CHEMBL1135944, “Identification of potent and selective oxytocin antagonists. Part 1: indole and benzofuran derivatives” (Bioorg Med Chem Lett, 2002):

Legend:
Oxytocin receptor [1] = target: T1, Oxytocin receptor (Homo sapiens, UniProt P30559); experiment: Ability to displace [3H]oxytocin from human OT receptor (hOT)
T1 sequence (P30559 whole entry): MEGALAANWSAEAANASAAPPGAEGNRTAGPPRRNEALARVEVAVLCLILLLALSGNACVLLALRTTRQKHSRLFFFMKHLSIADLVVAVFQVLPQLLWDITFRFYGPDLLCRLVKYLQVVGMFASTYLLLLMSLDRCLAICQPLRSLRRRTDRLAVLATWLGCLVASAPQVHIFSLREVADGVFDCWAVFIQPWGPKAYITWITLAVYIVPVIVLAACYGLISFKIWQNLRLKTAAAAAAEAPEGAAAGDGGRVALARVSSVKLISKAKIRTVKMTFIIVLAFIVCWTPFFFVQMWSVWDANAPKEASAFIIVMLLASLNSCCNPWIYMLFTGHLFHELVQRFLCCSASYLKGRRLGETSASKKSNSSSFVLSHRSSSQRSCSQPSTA

[2] = The pharmacokinetic parameter, clearance was reported in dog after intravenous administration; assay type: ADME, organism-based, Canis lupus familiaris; details: in vivo
[3] = Bioavailability in dog; assay type: ADME, organism-based, Canis lupus familiaris; details: in vivo
Oxytocin receptor [4] = target: T1, Oxytocin receptor; experiment: Compound was tested for its ability to displace [3H]oxytocin from human Oxytocin receptor

Row | Compound | Ki (Oxytocin receptor [1]) [µM] | clearance [2] [mL/min/kg] | bioavailability [3] [%] | Ki (Oxytocin receptor [4]) [µM]
1 | Cc1nc(-c2cccs2)ncc1C(=O)N1CCC(N2C(=O)OCc3ccccc32)CC1 | 0.158 | – | – | –
2 | CN1CCC(=O)N(CC(=O)NCc2cc3cc(C(=O)N4CCC(N5C(=O)OCc6ccccc65)CC4)ccc3o2)C1=O | 0.00398 | 27 | – | –
3 | Cc1cc(C(=O)N2CCC(N3C(=O)OCc4ccccc43)CC2)cc2ccn(C[C@H]3CCCN3S(C)(=O)=O)c12 | 0.01 | – | – | –
4 | CC(=O)N1CCN(Cc2cc3cc(C(=O)N4CCC(N5C(=O)OCc6ccccc65)CC4)ccc3o2)CC1 | 0.0794 | 11 | 44 | –
5 | CN(CCCn1ccc2cc(C(=O)N3CCC(N4C(=O)OCc5ccccc54)CC3)ccc21)S(C)(=O)=O | 0.158 | – | – | –
6 | O=C(c1ccc2[nH]ccc2n1)N1CCC(N2C(=O)OCc3ccccc32)CC1 | 0.794 | – | – | –
7 | CC(=O)NCCc1cc2cc(C(=O)N3CCC(N4C(=O)OCc5ccccc54)CC3)ccc2o1 | 0.0398 | 9 | 27 | –
8 | CS(=O)(=O)N1CCC[C@H]1Cn1ccc2cc(C(=O)N3CCC(N4C(=O)OCc5ccccc54)CC3)ccc21 | – | – | – | 0.126
9 | O=C(c1ccc2ncsc2c1)N1CCC(N2C(=O)OCc3ccccc32)CC1 | 0.794 | – | – | –
10 | CN(CCn1cnc2cc(C(=O)N3CCC(N4C(=O)OCc5ccccc54)CC3)ccc21)S(C)(=O)=O | 0.398 | – | – | –
11 | Cc1cc2cc(C(=O)N3CCC(N4C(=O)OCc5ccccc54)CC3)ccc2[nH]1 | 0.126 | – | – | –
12 | O=C(CN1CCCC1=O)NCc1cc2cc(C(=O)N3CCC(N4C(=O)OCc5ccccc54)CC3)ccc2o1 | 0.0251 | 34 | – | –
13 | CS(=O)(=O)N1CCC[C@@H]1Cc1coc2cc(C(=O)N3CCC(N4C(=O)OCc5ccccc54)CC3)ccc12 | 0.2 | – | – | –
14 | O=C(CN1C(=O)CNC1=O)NCc1cc2cc(C(=O)N3CCC(N4C(=O)OCc5ccccc54)CC3)ccc2o1 | 0.00631 | 17 | 8 | –
15 | CN(Cc1cc2cc(C(=O)N3CCC(N4C(=O)OCc5ccccc54)CC3)ccc2o1)C(=O)CN1C(=O)CNC1=O | 0.0251 | 15 | 12 | –
16 | Cc1c(C)n(C[C@H]2CCCN2S(C)(=O)=O)c2ccc(C(=O)N3CCC(N4C(=O)OCc5ccccc54)CC3)cc12 | 0.398 | – | – | –
17 | COc1cc(OC2CCN(C(C)=O)CC2)ccc1C(=O)N1CCC(N2C(=O)OCc3ccccc32)CC1 | 0.01 | – | – | –
18 | CC(=O)NCCn1ccc2cc(C(=O)N3CCC(N4C(=O)OCc5ccccc54)CC3)ccc21 | 0.398 | – | – | –
19 | CC(=O)NCc1cc2cc(C(=O)N3CCC(N4C(=O)OCc5ccccc54)CC3)ccc2o1 | 0.0631 | 8 | – | –
20 | CC(=O)NCC(=O)NCc1cc2cc(C(=O)N3CCC(N4C(=O)OCc5ccccc54)CC3)ccc2o1 | 0.0158 | 18 | 16 | –
21 | O=C(c1ccc2cc[nH]c2c1)N1CCC(N2C(=O)OCc3ccccc32)CC1 | 0.2 | – | – | –

Row | Compound | Ki (Oxytocin receptor [1]) [µM] | clearance [2] [mL/min/kg] | bioavailability [3] [%] | Ki (Oxytocin receptor [4]) [µM]
22 | O=C(c1ccc2[nH]ccc2c1)N1CCC(N2C(=O)OCc3ccccc32)CC1 | 0.2 | – | – | –
23 | CS(=O)(=O)N1CCC(c2cc3cc(C(=O)N4CCC(N5C(=O)OCc6ccccc65)CC4)ccc3o2)CC1 | 0.0794 | 9 | 69 | –
24 | CS(=O)(=O)N1CCN(Cc2cc3cc(C(=O)N4CCC(N5C(=O)OCc6ccccc65)CC4)ccc3o2)CC1 | 0.0631 | 7 | 100 | –
25 | O=C(c1ccc2occc2c1)N1CCC(N2C(=O)OCc3ccccc32)CC1 | 0.251 | – | – | –
26 | CC(=O)N1CCC[C@@H]1c1cc2cc(C(=O)N3CCC(N4C(=O)OCc5ccccc54)CC3)ccc2o1 | 0.0251 | 31 | – | –
27 | CS(=O)(=O)N1CCC[C@@H]1Cn1ccc2cc(C(=O)N3CCC(N4C(=O)OCc5ccccc54)CC3)ccc21 | 0.02 | – | – | –
28 | CC(=O)N1CCC(c2cc3cc(C(=O)N4CCC(N5C(=O)OCc6ccccc65)CC4)ccc3o2)CC1 | 0.0631 | 6 | 49 | –
29 | O=C(Cc1cccnc1)NCc1cc2cc(C(=O)N3CCC(N4C(=O)OCc5ccccc54)CC3)ccc2o1 | 0.0251 | 49 | – | –
30 | CC(=O)N1CCCC(c2cc3cc(C(=O)N4CCC(N5C(=O)OCc6ccccc65)CC4)ccc3o2)C1 (centres undefined) | 0.2 | – | – | –
31 | CN(CCn1ccc2cc(C(=O)N3CCC(N4C(=O)OCc5ccccc54)CC3)ccc21)S(C)(=O)=O | 0.0398 | – | – | –
32 | CS(=O)(=O)NCCn1ccc2cc(C(=O)N3CCC(N4C(=O)OCc5ccccc54)CC3)ccc21 | 0.316 | – | – | –
33 | CN1CC(=O)N(CC(=O)NCc2cc3cc(C(=O)N4CCC(N5C(=O)OCc6ccccc65)CC4)ccc3o2)C1=O | 0.00316 | 20 | – | –
34 | O=C(c1ccc2ccoc2c1)N1CCC(N2C(=O)OCc3ccccc32)CC1 | 0.398 | – | – | –
35 | CC1(C)NC(=O)N(CC(=O)NCc2cc3cc(C(=O)N4CCC(N5C(=O)OCc6ccccc65)CC4)ccc3o2)C1=O | 0.0158 | 20 | – | –
36 | CC1OC(=O)N(CC(=O)NCc2cc3cc(C(=O)N4CCC(N5C(=O)OCc6ccccc65)CC4)ccc3o2)C1=O (centres undefined) | 0.0251 | – | – | –
37 | Cc1nc(-c2ccncc2)sc1C(=O)N1CCC(N2C(=O)OCc3ccccc32)CC1 | 0.126 | – | – | –
38 | CC(=O)N(C)CCn1ccc2cc(C(=O)N3CCC(N4C(=O)OCc5ccccc54)CC3)ccc21 | 0.0631 | – | – | –
39 | Cn1ccc2cc(C(=O)N3CCC(N4C(=O)OCc5ccccc54)CC3)ccc21 | 0.126 | – | – | –
40 | CC(=O)N1CCC[C@@H]1Cn1ccc2cc(C(=O)N3CCC(N4C(=O)OCc5ccccc54)CC3)ccc21 | 0.158 | – | – | –
41 | Cc1c[nH]c2ccc(C(=O)N3CCC(N4C(=O)OCc5ccccc54)CC3)cc12 | 0.794 | – | – | –
